Values after ≈ are worked out from the molar mass of the structure shown.
Assays:
Assay type in all cases: cell-based
[1] = system: Streptococcus pyogenes At CC 86 68; assay: Serial dilution test; details: Streptococcus pyogenes, ATCC8668, 18-20 hours at 37° C., read-out: MIC, S.D.T., Streptococcus pyogenes
Protocol: (§1) The inhibitory effect on bacteria and fungi was examined by the serial dilution test and the agar diffusion test (hole-test). As bacteria were used: Staphylococcus aureus SG 511, Streptococcus Aronson, Streptococcus pyogenes At CC 86 68; as fungi: Candida albicans AT CC 10231, Trichophyton mentagrophytes AT CC 9129 and Aspergillus niger.
(§2) 2. Glucose broth: for Sc. Aronson and St. pyogenes Recipe see meat extract broth. After sterilization 1 weight percent of glucose is added as a sterile 50% solution.
(§3) The age of the primary cultures is 24 hours for bacteria and 14 days for fungi. The standardization of the suspension of microorganisms is effected using a photometer according to Eppendorf (test tube .phi.14 mm, filter 546 nm) and a suspension for comparison consisting of barium sulfate, this suspension being created by adition of 3.0 ml of 1% barium chloride solution to 97 ml of 1% sulfuric acid. After the standardization the bacteria were further diluted to a concentration of 1:1000 by means of sodium chloride solution, the fungi were used in an undiluted state.
(§4) 40 mgm of the substance were put into a 10 ml measuring flask and filled up to the mark with the solvent (corresponds to a dilution of 1:250=4000 μg/ml). The further dilution series was standardized with distilled water or the respective solvent and the following substance concentrations were prepared: 1000; 250; 62.5 μg/ml.
(§5) The tubes were filled with 4.9 ml of the corresponding liquid nutrient medium. Then 0.1 ml of the substance dilution prepared above was added to each tube, so that the mentioned final concentrations were present. Finally each tube was inoculated with 0.1 ml of the standardized suspension of microorganisms. Control tests merely using the solvent are to be carried out simultaneously.
(§6) Bacteria were incubated at 37° C. for 18-20 hours and fungi at 27° C. for 7 days.
(§7) The measurement is carried out macroscopically defining the minimal inhibitory concentration (the lowest still microbiostatically effective concentration).

[2] = system: Streptococcus Aronson; assay: Serial dilution test; details: Streptococcus, 18-20 hours at 37° C., read-out: MIC, S.D.T., Streptococcus Aronson
Protocol: as §1, §2, §3, §4, §5, §6, §7

[3] = system: Staphylococcus aureus SG 511; assay: Serial dilution test; details: Staphylococcus aureus, SG511, 18-20 hours at 37° C., read-out: MIC, S.D.T., Staphylococcus aureus SG 511
Protocol: as §1
1. Meat extract broth: for St. aureus SG 511
as §3, §4, §5, §6, §7

[4] = system: Streptococcus pyogenes At CC 86 68; assay: Agar diffusion test (hole-test); details: ATCC8668, 18-20 hours at 37° C., read-out: MIC, A.D.T., Streptococcus pyogenes
Protocol: as §1
(§8) 2. Glucose agar: for Sc. Aronson and St. pyogenes Recipe see meat extract agar. After sterilization 1 weight percent of glucose is added as a sterile 50% solution.
as §3, with “addition” for “adition”, “St. aureus SG 511 was” for “the bacteria were further”, “diluted” for “diluted to a concentration of”, “1:1000 and Sc. pyogenes and Aronson 1:100” for “1:1000”, “solution. The” for “solution, the”
(§9) 40 mgm of the substance were put into a 10 ml measuring flask and filled up to the mark with the solvent (corresponds to a dilution of 1:250=4000 μg/ml).
(§10) The dilutions to the concentrations under test were effected with distilled water or the respective solvent.
(§11) 19 ml of the nutrient medium were filled into sterile Petri dishes of a diameter of 8 cm and dried. Subsequently the agar plates were charged with 4 ml of seed agar. 100 ml of seed agar contain 1.25 ml of the suspension of microorganisms, an agar plate thus containing 0.05 ml of the suspension of microorganisms. After solidification of the agar, 5 holes of a diameter of 5 mm were punched into the plates and filled with 0.05 ml of the correspondingly concentrated substance solution.
(§12) Control tests merely using the solvent are to be carried out simultaneously.
as §6
(§13) The diameter of the area of inhibition in mm was measured after having deducted the diameter of the hole.

[5] = system: Streptococcus Aronson; assay: Agar diffusion test (hole-test); details: 18-20 hours at 37° C., read-out: MIC, A.D.T., Streptococcus Aronson
Protocol: as §1, §8
as §3, with “addition” for “adition”, “St. aureus SG 511 was” for “the bacteria were further”, “diluted” for “diluted to a concentration of”, “1:1000 and Sc. pyogenes and Aronson 1:100” for “1:1000”, “solution. The” for “solution, the”
as §9, §10, §11, §12, §6, §13

[6] = system: HeLa-cell culture; assay: Inhibition of HeLa cell cultures; details: Homo sapiens, 72 h, 37° C. for 3 days, 5% carbon dioxide; for IC50: read-out: ED50, HeLa cell culture; for minimal effective concentration: read-out: Minimal inhibitory concentration, HeLa cell culture
Protocol: Measurement of the inhibition of cell cultures
HeLa-cell culture was treated with trypsin and adjusted to a cell number of 150,000 cells/ml of fresh medium. The substance was always dissolved in the same quantity of dimethyl sulfoxide and then further diluted with growth medium. 0.1 ml of the substance-dilutions were added to each well of microtiter plates and then 0.2 ml of cell suspension were added (4 wells per dilution). Several growth controls containing 0.1 ml of growth medium instead of 0.1 ml of substance dilution were put up. After careful mixing, the cultures were incubated at 37° C. for 3 days in a 5% carbon dioxide atmosphere. The reading was effected in comparison with these controls. The results were given as the percentage of the deficiency and degeneration compared to the growth control. […] The statements are referred to μg of substance per ml of total medium.

[7] = system: Corynebacterium acnes; assay: Serial dilution test for Corynebacterium acnes; details: for MIC: Cutibacterium acnes, 37° C. for 48 hours, read-out: MIC, S.D.T., Corynebacterium acnes
Protocol: Serial dilution test for Corynebacterium acnes and Pityrosporum ovale Nutrient medium
For Corynebacterium acnes: thioglycolate-broth for Pityrosporum ovale: Littmann's broth, 5 ml per tube.
Suspension of microorganisms in 0.9% sodium chloride solution, standardized using a photometer according to Eppendorf by means of a suspension for comparison consisting of barium sulfate, for Corynebacterium acnes in a dilution of 1:100, for Pityrosporum ovale in an undiluted state. 0.1 ml of the suspensions was used per test tube. Dimethyl sulfoxide served as a solvent for the substances.
The suspension with Corynebacteria acnes was incubated at 37° C. for 48 hours, the suspension of Pityrosporum ovale at 27° C. for 7 days. The reading was effected by macroscopic evaluation of the growth of microorganisms and registration of the minimal inhibitory concentration.

[8] = system: Staphylococcus aureus SG 511; assay: Agar diffusion test (hole-test); details: SG511, 18-20 hours at 37° C., read-out: MIC, A.D.T., Staphylococcus aureus SG 511
Protocol: as §1
1. Meat extract agar: for St. aureus SG 511
as §3, with “addition” for “adition”, “St. aureus SG 511 was” for “the bacteria were further”, “diluted” for “diluted to a concentration of”, “1:1000 and Sc. pyogenes and Aronson 1:100” for “1:1000”, “solution. The” for “solution, the”
as §9, §10, §11, §12, §6, §13

SMILES	MIC [1] [µg/mL]	MIC [2] [µg/mL]	MIC [3] [µg/mL]	MIC [4] [µg/mL]	MIC [5] [µg/mL]	IC50 [6] [µg/mL]	MIC [7] [µg/mL]	MIC [8] [µg/mL]	minimal effective concentration [6] [µg/mL]	Concentration with reduced growth (value in brackets), S.D.T., Corynebacterium acnes ([7]; reduced growth at this concentration) [µg/mL]
CCCCC(C)c1c(O)ccc(C(=O)C(F)(F)F)c1O (stereo not shown) [K]	0.31 (≈ 1.07 µM)	1.25 (≈ 4.31 µM)	1.25 (≈ 4.31 µM)	≤ 15.6	≤ 15.6	2.27 (≈ 7.82 µM)	0.08 (≈ 0.276 µM)	≤ 15.6	0.78	
CC(C)CCc1cc(C(=O)C(F)(F)F)c(O)cc1O [G, 2,4-Dihydroxy-5-iso-pentyl-trifluoroacetophenone]	0.31 (≈ 1.12 µM)	1.25 (≈ 4.52 µM)	0.31 (≈ 1.12 µM)	≤ 15.6	≤ 15.6	5.8 (≈ 21 µM)	1.25 (≈ 4.52 µM)	≤ 15.6	0.78	
CC1CC(C)CC(c2cc(C(=O)C(F)(F)F)c(O)cc2O)C1 (stereo not shown) [I, 2,4-Dihydroxy-5-(3',5'-dimethyl)-cyclohexyl-tri-fluoroacetophenone]	0.31 (≈ 0.98 µM)	0.08 (≈ 0.253 µM)	0.31 (≈ 0.98 µM)	≤ 15.6	≤ 15.6		0.08 (≈ 0.253 µM)	≤ 15.6		

Second part, led by results:

MIC [1] [µg/mL]	MIC [2] [µg/mL]	MIC [3] [µg/mL]	MIC [4] [µg/mL]	MIC [5] [µg/mL]	IC50 [6] [µg/mL]	MIC [7] [µg/mL]	MIC [8] [µg/mL]	SMILES	minimal effective concentration [6] [µg/mL]	Concentration with reduced growth (value in brackets), S.D.T., Corynebacterium acnes ([7]; reduced growth at this concentration) [µg/mL]
1.25 (≈ 2.76 µM)	1.25 (≈ 2.76 µM)	1.25 (≈ 2.76 µM)	≤ 15.6	≤ 15.6	3.8 (≈ 8.4 µM)	0.31 (≈ 0.685 µM)	≤ 15.6	Cc1c(O)c(Cc2cc(C(=O)C(F)(F)F)c(O)c(C)c2O)cc(C(=O)C(F)(F)F)c1O [S, Methylene-bis-(2,4-dihydroxy-3-methyl-5-trifluoro-acetyl)-benzene]	≤ 0.78	
0.08 (≈ 0.265 µM)	0.31 (≈ 1.03 µM)	0.31 (≈ 1.03 µM)	≤ 15.6	≤ 15.6		1.25 (≈ 4.14 µM)	≤ 15.6	O=C(c1ccc(O)c(C2CCCCCC2)c1O)C(F)(F)F [O, 2,4-Dihydroxy-3-cycloheptyl-trifluoroacetophenone]		0.31
0.005 (≈ 0.0104 µM)	0.31 (≈ 0.645 µM)	0.08 (≈ 0.167 µM)	≤ 15.6	≤ 15.6		0.005 (≈ 0.0104 µM)	≤ 15.6	CCc1cc(C(=O)C(F)(F)F)c(O)c(Cc2c(O)c(CC)cc(C(=O)C(F)(F)F)c2O)c1O [R, Methylene-bis-(2,6-dihydroxy-3-ethyl-5-trifluoro-acetyl)-benzene]		

Reference: US4225619A, “Substituted fluoracylresorcinols” (Boehringer Ingelheim GmBH, priority 1976, dated 1980)
